Marks after values point to notes of the source that are not given here.
Key:
HAdV5 = experiment: Ad5/NZW rabbit ocular replication model; type: in vivo, New Zealand white (NZW) rabbits; settings: for number of HAdV5-positive cultures per group on days 1, 3, 4, 5, 7 and 14 compared with saline control: Fisher Exact Test, p < 0.05; for reduction of the duration of shedding: vs saline control; for Duration of HAdV5 Shedding, Mean ± Sd: n = 20; for Mean ± Sd Combined HAdV5 Ocular Titers, Early Phase (Days 1–5) / Mean ± Sd Combined HAdV5 Ocular Titers, Late Phase (Days 7–14): n = 80
Protocol: Using the Ad5/NZW rabbit ocular replication model, the current study was performed in duplicate trials using a total of 40 rabbits (20 per trial). Following the systemic and topical anesthesia described above, the rabbits were topically inoculated with 50 µL (1.5 × 10^6 PFU/eye) of HAdV5 in both eyes after corneal epithelial scarification (12 cross-hatched strokes of a #25 sterile needle). Twenty-four hours later, the rabbits were randomly assigned to one of four topical treatment groups (n = 10): (1) 3% CPE-C 4X/day, (2) 3% CPE-C 2X/day, (3) 0.5% Cidofovir 2X/day, and (4) Saline Control 4X/day. Rabbits were treated topically in both eyes according to the above treatment regimens for 7 days. The CPE-C ointments were administered as described above in the ocular toxicity study. Cidofovir and saline were administered as 37 µL aqueous drops. Following topical anesthesia with 0.5% proparacaine, ocular swabbing to recover HAdV5 from the tear film and corneal and conjunctival surfaces was performed on days 0, 1, 3, 4, 5, 7, 9, 11, and 14 after inoculation. The cultures were taken at least 1 h after the final dose of antiviral on the days the antivirals were administered. The swabs from each eye were placed individually into tubes containing 1 mL of tissue culture media and were frozen at −80 °C pending viral plaque assay.
The samples to be assayed were diluted 1:10 for up to 6 dilutions. One-tenth of a ml of both the undiluted sample and the dilutions was inoculated onto duplicate wells of 24-well multiplates containing A549 monolayers. The virus was adsorbed for 3 h at 37 °C in a 5% CO2-water vapor atmosphere. The plates were rocked intermittently to keep the cells from drying. Following adsorption, 1 mL of tissue culture media containing 0.5% methylcellulose was added to each well, and the plates were incubated at 37 °C in a 5% CO2-water vapor atmosphere. After the appropriate incubation period, the cells were fixed and stained with 0.5% gentian violet in formalin. The plates were dried, and the number of plaques per well was counted under a dissecting microscope. The viral titers were then calculated and expressed as plaque-forming units per milliliter (PFU/mL).
The in vitro EC50 data was analyzed with Two-Sample T-Tests using Minitab (Minitab Inc., State College, PA, USA) statistical software Version 21. Following the completion of both trials in the in vivo antiviral efficacy study, the data from each trial were analyzed statistically using Minitab and GraphPad online (https://www.graphpad.com/quickcalcs/contingency1/ (accessed on 16 February 2023)). […] Significance was established at the p ≤ 0.05 confidence level.

HAdV8 = experiment: plaque reduction assay in A549 cells, HAdV8; type: cell-based; settings: Human adenovirus sp.
Protocol: The in vitro antiviral testing was done using a standard plaque reduction assay with A549 human lung carcinoma cells as previously described. The EC50s were determined using a Fitted Line Plot Regression analysis with Minitab Version 21 software. The EC50 is the effective concentration that inhibits plaque formation by 50%. The HAdV types tested represent the most common adenovirus serotypes that cause ocular infections (HAdV8, HAdV19/64, HAdV37 (EKC); HAdV3, HAdV4, HAdV7a (follicular conjunctivitis)) and serotypes that cause conjunctivitis and can replicate in the rabbit ocular model (HAdV1, HAdV2, HAdV5).
For the in vitro antiviral testing, clinical adenovirus isolates of types HAdV1, HAdV2, HAdV3, HAdV4, HAdV5, HAdV7a, HAdV8, and HAdV19/64 were anonymously collected from patients presenting with typical adenoviral conjunctivitis at the Charles T. Campbell Ophthalmic Microbiology Laboratory at the UPMC Eye Center, University of Pittsburgh, Pittsburgh, PA, USA. The isolates were retrieved from a frozen −80 °C retrospective clinical collection that was de-identified and stored for diagnostic test validations. The types of isolates were determined using serum neutralization. Recently, HAdV19 has been reclassified as HAdV64 [41]; however, for the purpose of this study, it was designated as HAdV19/64. No clinical isolates of HAdV37 were identified, therefore the ATCC (American Type Culture Collection, Manassas, VA, USA) reference strain of HAdV37 was used. The clinical isolates along with the ATCC HAdV37 reference strain were grown in A549 cell (CCL-185, ATCC) monolayers and stocks were prepared, aliquoted, and frozen at –80 °C. The titers of the stock viruses were determined as described in Section 4.7. The same clinical isolate of HAdV5 used for the in vitro antiviral testing was also used for the in vivo antiviral evaluation in the Ad5/NZW rabbit ocular replication model.
A549 human lung carcinoma cells were grown and maintained in Eagle’s MEM supplemented with 10% fetal bovine serum (Sigma Cell Culture Reagents, St. Louis, MO, USA). The A549 cell line was used to prepare the adenovirus stocks and for the determination of viral titers in the Ad5/NZW rabbit ocular replication model and in the in vitro plaque reduction assays.
Plaque reduction assays were performed 2–4 times using 24-well multiplates containing A549 monolayers. One plate per virus isolate per drug was used. The 24-well multiplates were inoculated with approximately 100 plaque-forming units (PFU) of HAdV per well. After a three-hour adsorption period, the inocula were removed from all wells. […] The plates were dried, and the number of plaques per well was counted using a dissecting microscope. […] The mean and standard deviation EC50 concentrations of 2–4 trials were then determined for each HAdV isolate. […]

[1] = parameters: method as in PMID 11431446; settings: topical ocular; cited from earlier work
[2] = 3% ointment topical 2X/Day for 7 days
[3] = 3% ointment topical 4X/Day for 7 days
[4] = A549, HAdV8, converted from μg/mL
[5] = HAdV8 clinical isolate, A549 cells, mean ± SD of 2–4 trials
[6] = 0.5% drops topical 2X/Day for 7 days

For `Nc1ccn([C@@H]2C=C(CO)[C@@H](O)[C@H]2O)c(=O)n1` [CPE-C, Cyclopentenylcytosine], the “number of HAdV5-positive cultures per group on days 1, 3, 4, 5, 7 and 14 compared with saline control” value (HAdV5; 3% 2X/day) was “significantly reduced”, the “number of HAdV5-positive cultures per group on days 1, 3, 4, 5, 7 and 14 compared with saline control” value (HAdV5; 3% 4X/day) was “significantly reduced” and the “reduction of the duration of shedding” value (HAdV5; 3% administered 2X per day for 7 days) was 5.6 days. For the same molecule, the “reduction of the duration of shedding” value (HAdV5; 3% administered 4X per day for 7 days) was 6.8 days, the “HAdV5-Positive Eye Cultures/Total, Early Phase (Days 1–5)” value (HAdV5; [2]) was 29/80 and the “HAdV5-Positive Eye Cultures/Total, Early Phase (Days 1–5), percent” value (HAdV5; [2]) was 36%. The “HAdV5-Positive Eye Cultures/Total, Late Phase (Days 7–14)” value (HAdV5; [2]) was 2/80, the “HAdV5-Positive Eye Cultures/Total, Late Phase (Days 7–14), percent” value (HAdV5; [2]) was 3% and the “HAdV5-Positive Eye Cultures/Total, Overall (Days 1–14)” value (HAdV5; [2]) was 31/160. For the same molecule, the “HAdV5-Positive Eye Cultures/Total, Overall (Days 1–14), percent” value (HAdV5; [2]) was 19%, the “Duration of HAdV5 Shedding, Mean ± Sd” value (HAdV5; [2]) was 2.5 ± 2.3 ^d Days and the “Mean ± Sd Combined HAdV5 Ocular Titers, Early Phase (Days 1–5)” value (HAdV5; [2]) was 3.5 ± 18.1 × 10^1 b Log10 PFU/mL. For the same molecule, the “Mean ± Sd Combined HAdV5 Ocular Titers, Late Phase (Days 7–14)” value (HAdV5; [2]) was 3.6 ± 25.2 × 10^0 c Log10 PFU/mL, the “HAdV5-Positive Eye Cultures/Total, Late Phase (Days 7–14)” value (HAdV5; [3]) was 6/80 and the “HAdV5-Positive Eye Cultures/Total, Late Phase (Days 7–14), percent” value (HAdV5; [3]) was 8%. The “HAdV5-Positive Eye Cultures/Total, Overall (Days 1–14)” value (HAdV5; [3]) was 24/160, the “HAdV5-Positive Eye Cultures/Total, Overall (Days 1–14), percent” value (HAdV5; [3]) was 15% and the “Duration of HAdV5 Shedding, Mean ± Sd” value (HAdV5; [3]) was 1.3 ± 1.6 ^d Days. The “Mean ± Sd Combined HAdV5 Ocular Titers, Early Phase (Days 1–5)” value (HAdV5; [3]) was 1.6 ± 4.8 × 10^1 b Log10 PFU/mL, the “Mean ± Sd Combined HAdV5 Ocular Titers, Late Phase (Days 7–14)” value (HAdV5; [3]) was 0.9 ± 4.4 × 10^0 c Log10 PFU/mL and the EC50 (HAdV8; [4]) was 0.246 ± 0.076 µM. The EC50 (HAdV8; [5]) was 0.059 ± 0.018 µg/mL.
With `Nc1ccn(C[C@@H](CO)OCP(=O)(O)O)c(=O)n1` [Cidofovir, cidofovir, reference compound] the “number of HAdV5-positive cultures per group on days 1, 3, 4, 5, 7 and 14 compared with saline control” value (HAdV5; 0.5% 2X/day) was “significantly reduced”, the “HAdV5-positive cultures on day 9 compared with saline control” value (HAdV5; 0.5% 2X/day, p = 0.0197, FET) was “significantly fewer” and the “HAdV5-Positive Eye Cultures/Total, Early Phase (Days 1–5)” value (HAdV5; [6]) was 26/80. For the same molecule, the “HAdV5-Positive Eye Cultures/Total, Early Phase (Days 1–5), percent” value (HAdV5; [6]) was 33%, the “HAdV5-Positive Eye Cultures/Total, Late Phase (Days 7–14)” value (HAdV5; [6]) was 1/80 and the “HAdV5-Positive Eye Cultures/Total, Late Phase (Days 7–14), percent” value (HAdV5; [6]) was 1%. The “HAdV5-Positive Eye Cultures/Total, Overall (Days 1–14)” value (HAdV5; [6]) was 27/160, the “HAdV5-Positive Eye Cultures/Total, Overall (Days 1–14), percent” value (HAdV5; [6]) was 17% and the “Duration of HAdV5 Shedding, Mean ± Sd” value (HAdV5; [6]) was 2.0 ± 1.8 ^d Days. For the same molecule, the “Mean ± Sd Combined HAdV5 Ocular Titers, Early Phase (Days 1–5)” value (HAdV5; [6]) was 6.7 ± 12.7 × 10^0 b Log10 PFU/mL, the “Mean ± Sd Combined HAdV5 Ocular Titers, Late Phase (Days 7–14)” value (HAdV5; [6]) was 0.3 ± 2.2 × 10^0 c Log10 PFU/mL and the EC50 (HAdV8; [4]) was 1.56 ± 0.592 µM. For the same molecule, the EC50 (HAdV8; [5]) was 0.427 ± 0.173 µg/mL and the “toxicity leading to discontinuation of development of topical cidofovir in the USA” value [1] was “epiphora due to secondary lacrimal canalicular blockade”.
